Structures are written as SMILES. Active and inactive are the calls of the source.

Assay [1] can be described thus: Counterscreen for antagonists of the orexin 1 receptor (OX1R; HCRTR1): Fluorescence-based cell-based high throughput dose response assay to identify antagonists of the parental CHO cell line. [Related pubchem assays (depositor defined):AID434989, AID435008, AID463079, AID485270, AID492963, AID492964, AID492965, AID493232, AID504699, AID504701]. The assay is classed as functional.

For another assay, the system named is CHO-K1. Briefly: Counterscreen for antagonists of the orexin 1 receptor (OX1R; HCRTR1): Homogeneous time resolved fluorescence (HTRF)-based cell-based dose response assay to identify antagonists of the parental CHO-K1 cell line. [Related pubchem assays (depositor defined):AID434989, AID435008, AID463079, AID485270, AID492963, AID492964, AID492965, AID493232, AID504699, AID504701]. The note with it: Cricetulus griseus. Type of assay: functional. In general terms: Counterscreens check selectivity or assay interference.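 Further: potency for inhibition of ATP-stimulated IP1 production as antagonists.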

Assay [2] addresses T1, Orexin receptor type 2 (Homo sapiens, UniProt O43614).
T1 sequence (O43614 whole entry): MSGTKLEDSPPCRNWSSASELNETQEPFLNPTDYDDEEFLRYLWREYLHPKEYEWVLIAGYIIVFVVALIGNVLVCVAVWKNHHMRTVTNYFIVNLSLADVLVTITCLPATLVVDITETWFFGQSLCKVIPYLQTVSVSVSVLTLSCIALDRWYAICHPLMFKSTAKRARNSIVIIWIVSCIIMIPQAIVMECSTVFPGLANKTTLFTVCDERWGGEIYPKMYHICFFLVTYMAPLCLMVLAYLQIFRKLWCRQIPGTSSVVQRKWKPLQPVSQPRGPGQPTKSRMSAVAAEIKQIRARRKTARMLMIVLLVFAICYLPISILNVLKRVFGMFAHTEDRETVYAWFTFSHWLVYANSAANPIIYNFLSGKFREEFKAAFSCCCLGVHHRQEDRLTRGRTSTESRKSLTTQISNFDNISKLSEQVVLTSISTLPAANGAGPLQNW
Briefly: Counterscreen assay for antagonists of the orexin 1 receptor (OX1R; HCRTR1): Fluorescence-based cell-based dose response assay for antagonists of the orexin 2 receptor (OX2R; HCRTR2), run by assay provider. Type of assay: functional.

The target of assay [3] is T2, Orexin/Hypocretin receptor type 1 (Homo sapiens, UniProt O43613).
T2 sequence (O43613 whole entry): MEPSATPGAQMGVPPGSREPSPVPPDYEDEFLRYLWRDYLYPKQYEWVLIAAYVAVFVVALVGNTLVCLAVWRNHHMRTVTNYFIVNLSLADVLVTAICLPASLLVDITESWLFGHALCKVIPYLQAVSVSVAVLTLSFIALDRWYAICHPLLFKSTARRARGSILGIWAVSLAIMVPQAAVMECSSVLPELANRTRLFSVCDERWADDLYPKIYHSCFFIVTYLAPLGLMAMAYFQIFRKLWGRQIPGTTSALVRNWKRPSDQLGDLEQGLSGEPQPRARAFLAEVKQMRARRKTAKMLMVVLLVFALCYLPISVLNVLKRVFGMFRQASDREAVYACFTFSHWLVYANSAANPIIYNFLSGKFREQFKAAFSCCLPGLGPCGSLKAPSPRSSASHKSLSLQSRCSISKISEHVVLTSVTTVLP
Briefly: Fluorescence-based cell-based high throughput dose response assay for antagonists of the orexin 1 receptor (OX1R; HCRTR1). [Related pubchem assays (depositor defined):AID434989, AID435008, AID463079, AID485270, AID492963, AID492964, AID492965, AID493232, AID504717, AID504718]. Type of assay: functional.

Assay [4] has as its target T2, Orexin/Hypocretin receptor type 1. The experiment in a line: Homogeneous Time Resolved Fluorescence (HTRF)-based cell-based high throughput dose response assay for antagonists of the orexin 1 receptor (OX1R; HCRTR1). [Related pubchem assays (depositor defined):AID434989, AID435008, AID463079, AID485270, AID492963, AID492964, AID492965, AID493232, AID504717, AID504718]. The assay is classed as functional. In general terms: In TR-FRET formats the signal depends on donor and acceptor labels being close together.

In a further assay the target is T3, Estrogen receptor (Homo sapiens, UniProt P03372).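 Further: potency for inhibiting coactivator peptide recruitment to the receptor.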
T3 sequence (P03372 whole entry): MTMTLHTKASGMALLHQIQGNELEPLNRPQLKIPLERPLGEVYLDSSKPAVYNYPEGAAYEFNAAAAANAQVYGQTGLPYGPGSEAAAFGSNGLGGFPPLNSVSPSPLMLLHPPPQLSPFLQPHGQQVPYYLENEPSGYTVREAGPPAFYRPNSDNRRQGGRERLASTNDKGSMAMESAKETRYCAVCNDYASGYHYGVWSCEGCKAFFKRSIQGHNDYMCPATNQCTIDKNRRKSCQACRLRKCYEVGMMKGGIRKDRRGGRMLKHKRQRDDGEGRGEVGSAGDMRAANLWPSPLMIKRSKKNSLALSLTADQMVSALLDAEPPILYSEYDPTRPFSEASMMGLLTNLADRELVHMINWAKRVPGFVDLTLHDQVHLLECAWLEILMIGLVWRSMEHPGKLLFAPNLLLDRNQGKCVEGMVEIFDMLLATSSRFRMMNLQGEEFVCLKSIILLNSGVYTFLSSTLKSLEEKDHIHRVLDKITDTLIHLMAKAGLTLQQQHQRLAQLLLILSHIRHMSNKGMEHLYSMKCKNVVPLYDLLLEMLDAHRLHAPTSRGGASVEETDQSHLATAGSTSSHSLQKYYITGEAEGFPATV

Assay [5] concerns the target T1, Orexin receptor type 2. Briefly: Counterscreen assay for antagonists of the orexin 1 receptor (OX1R; HCRTR1): Homogeneous Time Resolved Fluorescence (HTRF)-based cell-based dose response assay for antagonists of the orexin 2 receptor (OX2R; HCRTR2), run by assay provider. The assay is classed as functional.
Assay [6] deals with Heat shock protein HSP 90-alpha (Homo sapiens, UniProt P07900). The assay is classed as functional, organism-based.
For the next assay, the system named is H4. Briefly: Luminescence Cell-Based Dose Response HTS to Identify Activators of 5'UTR Stem-Loop Driven Prion Protein mRNA Translation in H4 Neuroglioblastoma Cells. [Related pubchem assays: 1829 (Project Summary), 1814 (Primary HTS)]. The assay is classed as functional. The note with it: Homo sapiens.
A short description of assay [7]: Luminescence Cell-Based Dose Confirmation HTS to Identify Activators of 5'UTR Stem-Loop Driven Alpha-Synuclein mRNA Translation in H4 Neuroglioblastoma Cells. [Related pubchem assays: 1829 (Project Summary), 1814 (Primary HTS)]. Type of assay: functional.
Assay [8] is described as follows: Luminescence Cell-Based Dose Response HTS to Identify Activators of Luciferase Translation or Activity in H4 […] Cells. [Related pubchem assays: 1829 (Project Summary), 1814 (Primary HTS)]. Type of assay: functional.
Another assay addresses Mu-type opioid receptor (Homo sapiens, UniProt P35372). Briefly: Counterscreen for agonists of heterodimerization of the mu 1 (OPRM1) and delta 1 (OPRD1) opioid receptors: Luminescence-based cell-based high throughput dose response assay to identify agonists of OPRM1 homodimerization. Type of assay: functional.
Assay [9] addresses 5-hydroxytryptamine receptor 5A (Homo sapiens, UniProt P47898). The experiment in a line: Counterscreen for agonists of OPRM1-OPRD1 heterodimerization: luminescence-based cell-based high throughput dose response assay to identify agonists of 5-hydroxytryptamine (serotonin) 5A receptor (HTR5A). [Related pubchem assays (depositor defined):AID504326, AID504355, AID504692, AID504904, AID504905]. The assay is classed as functional.

Assay [10] concerns the target T4, Short transient receptor potential channel 4 (Mus musculus, UniProt Q9QUQ5).
T4 sequence (Q9QUQ5 whole entry): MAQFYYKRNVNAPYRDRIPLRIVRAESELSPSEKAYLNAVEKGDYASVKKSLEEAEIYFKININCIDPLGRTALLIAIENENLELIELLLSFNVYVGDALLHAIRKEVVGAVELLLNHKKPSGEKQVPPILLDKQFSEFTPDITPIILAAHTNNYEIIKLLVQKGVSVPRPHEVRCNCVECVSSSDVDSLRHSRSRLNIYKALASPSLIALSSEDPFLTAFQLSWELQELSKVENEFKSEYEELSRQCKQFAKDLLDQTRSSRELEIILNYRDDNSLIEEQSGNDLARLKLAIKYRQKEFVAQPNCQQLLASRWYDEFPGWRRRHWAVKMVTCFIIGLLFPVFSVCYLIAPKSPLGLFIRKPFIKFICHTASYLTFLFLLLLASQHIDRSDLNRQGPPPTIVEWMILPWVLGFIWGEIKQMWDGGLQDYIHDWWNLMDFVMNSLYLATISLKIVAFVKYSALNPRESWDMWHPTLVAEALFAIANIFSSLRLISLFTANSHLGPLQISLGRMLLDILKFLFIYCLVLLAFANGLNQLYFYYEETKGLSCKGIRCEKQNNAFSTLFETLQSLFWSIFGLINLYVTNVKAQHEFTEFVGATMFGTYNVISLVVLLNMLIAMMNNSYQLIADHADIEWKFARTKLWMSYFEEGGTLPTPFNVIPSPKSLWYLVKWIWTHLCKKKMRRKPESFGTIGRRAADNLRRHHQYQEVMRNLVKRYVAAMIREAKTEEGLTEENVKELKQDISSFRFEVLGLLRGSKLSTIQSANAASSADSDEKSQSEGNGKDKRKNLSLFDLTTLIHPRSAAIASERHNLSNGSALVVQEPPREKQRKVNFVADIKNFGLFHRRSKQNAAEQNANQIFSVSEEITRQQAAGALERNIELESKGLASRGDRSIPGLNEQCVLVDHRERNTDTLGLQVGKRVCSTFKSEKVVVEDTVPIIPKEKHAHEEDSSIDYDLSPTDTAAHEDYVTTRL
Briefly: mouse TRPC4 channel activators, dose response, cell-based, HEK293 TRPC4/mu-opioid, Fluo-4 calcium (AID 434937). Type of assay: functional.

In assay [11] the target is Delta-type opioid receptor (Homo sapiens, UniProt P41143). The experiment in a line: Counterscreen for agonists of heterodimerization of the mu 1 (OPRM1) and delta 1 (OPRD1) opioid receptors: Luminescence-based cell-based high throughput dose response assay to identify agonists of OPRD1 homodimerization. [Related pubchem assays (depositor defined):AID504326, AID504355, AID504692, AID504904, AID504905]. The assay is classed as functional.

In assay [12] the target is T5, DNA repair and recombination protein RAD54-like (Homo sapiens, UniProt Q92698).
T5 sequence (Q92698 whole entry): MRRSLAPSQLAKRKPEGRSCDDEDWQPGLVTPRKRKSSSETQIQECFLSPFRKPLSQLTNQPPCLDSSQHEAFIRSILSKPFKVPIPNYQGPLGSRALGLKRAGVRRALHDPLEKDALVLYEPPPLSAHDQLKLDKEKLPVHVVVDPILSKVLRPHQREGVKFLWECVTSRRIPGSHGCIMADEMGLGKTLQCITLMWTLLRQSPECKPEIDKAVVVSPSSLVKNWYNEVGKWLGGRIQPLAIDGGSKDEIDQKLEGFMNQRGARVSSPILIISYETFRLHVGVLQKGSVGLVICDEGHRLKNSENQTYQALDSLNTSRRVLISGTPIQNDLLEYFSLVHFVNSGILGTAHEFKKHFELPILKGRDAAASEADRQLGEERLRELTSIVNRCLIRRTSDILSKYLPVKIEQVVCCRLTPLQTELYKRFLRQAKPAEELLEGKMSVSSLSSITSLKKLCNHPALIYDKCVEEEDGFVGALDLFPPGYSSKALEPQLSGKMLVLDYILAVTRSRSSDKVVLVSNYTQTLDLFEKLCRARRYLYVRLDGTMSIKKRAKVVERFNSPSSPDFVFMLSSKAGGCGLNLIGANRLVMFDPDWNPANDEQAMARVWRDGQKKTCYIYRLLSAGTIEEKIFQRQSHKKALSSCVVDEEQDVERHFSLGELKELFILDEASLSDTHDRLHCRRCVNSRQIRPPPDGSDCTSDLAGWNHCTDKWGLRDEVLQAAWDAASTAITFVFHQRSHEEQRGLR
Briefly: inhibitors of human RAD54 branch migration, confirmation, biochemical, fluorescence, cherry-picked samples, dose series (AID 651657). Type of assay: functional.

Sequence of 5-hydroxytryptamine receptor 5A (P47898 whole entry): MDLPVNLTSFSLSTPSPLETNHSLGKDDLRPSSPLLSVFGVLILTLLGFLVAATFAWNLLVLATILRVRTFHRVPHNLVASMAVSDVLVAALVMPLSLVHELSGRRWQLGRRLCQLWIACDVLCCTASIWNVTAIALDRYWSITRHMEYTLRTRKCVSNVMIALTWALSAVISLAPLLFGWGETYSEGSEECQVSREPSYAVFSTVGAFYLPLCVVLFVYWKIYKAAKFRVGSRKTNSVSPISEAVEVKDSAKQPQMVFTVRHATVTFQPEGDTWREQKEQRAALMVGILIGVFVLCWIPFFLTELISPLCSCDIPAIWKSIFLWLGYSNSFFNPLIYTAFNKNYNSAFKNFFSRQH
Sequence of Delta-type opioid receptor (P41143 whole entry): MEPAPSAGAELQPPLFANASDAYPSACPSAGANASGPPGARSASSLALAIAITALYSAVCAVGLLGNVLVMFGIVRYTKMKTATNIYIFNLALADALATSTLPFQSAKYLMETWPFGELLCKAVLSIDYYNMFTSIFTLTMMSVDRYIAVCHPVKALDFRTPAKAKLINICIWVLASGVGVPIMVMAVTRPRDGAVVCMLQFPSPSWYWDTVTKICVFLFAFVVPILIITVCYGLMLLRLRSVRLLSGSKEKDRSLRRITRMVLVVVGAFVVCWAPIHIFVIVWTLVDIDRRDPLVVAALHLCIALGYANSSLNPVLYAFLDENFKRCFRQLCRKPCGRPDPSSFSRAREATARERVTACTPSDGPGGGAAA
Sequence of Mu-type opioid receptor (P35372 whole entry): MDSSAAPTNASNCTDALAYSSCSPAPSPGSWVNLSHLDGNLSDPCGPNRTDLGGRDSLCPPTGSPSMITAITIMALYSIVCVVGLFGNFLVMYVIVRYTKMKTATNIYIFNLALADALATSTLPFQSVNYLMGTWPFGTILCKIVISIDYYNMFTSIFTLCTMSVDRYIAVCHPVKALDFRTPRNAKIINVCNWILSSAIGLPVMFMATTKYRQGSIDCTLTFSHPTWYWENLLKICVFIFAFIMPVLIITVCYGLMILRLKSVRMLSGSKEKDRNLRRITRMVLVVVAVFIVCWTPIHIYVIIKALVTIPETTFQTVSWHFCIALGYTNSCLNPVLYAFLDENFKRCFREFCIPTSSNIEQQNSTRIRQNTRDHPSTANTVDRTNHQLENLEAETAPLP

On to `CCn1c(SCC(=O)Nc2ccc3c(c2)c2ccccc2n3CC)nnc1-c1cnccn1`, for which the IC50 (in general, the concentration that inhibits the measured activity by half) in assay [1] was > 49.8 µM (inactive); in the assay on CHO-K1, > 66.3 µM (inactive); at Orexin receptor type 2 [2] it was 38.9 µM (inactive); in assay [3], 2.18 µM (active); in assay [4], 0.0548 µM (active); against Estrogen receptor, > 50 µM (not active). For the same compound, at Orexin receptor type 2 [5], the IC50 is 23.1 µM (inactive).
For `COc1ccccc1OCCNC(=O)c1ccc(Br)cc1`, the AC50 – broadly, the midpoint of the concentration-response curve, whichever way the signal moves – in assay [6] was 10.8 µM (active).
Take `N#CC(=C1SC=CS1)c1nc(-c2ccccc2)cs1`: the results for the EC50 (in the assay with H4; in assay [7]; in assay [8]) were > 120 µM (not active), 0.204 µM (active) and 53.4 µM (active), respectively. Also, the IC50 in [1] was > 49.7 µM (inactive); in the assay with CHO-K1, > 66.2 µM (inactive); on Orexin receptor type 2 [2], 6.66 µM (active); in assay [3], 1.02 µM (active); in assay [4] it was 0.749 µM (active); at Orexin receptor type 2 [5], 4.31 µM (active).
For the compound `CCn1cc(CNCc2cn(-c3ccccc3C)nc2-c2ccc(OC)c(F)c2)cn1`, the EC50 (usually the concentration needed to bring the measured effect to its halfway point) at Mu-type opioid receptor is 18.9 µM (inactive); in [9], > 92.5 µM (inactive); in [10], 1.33 µM (active); in assay [11], 34.7 µM (inactive).
With `COC(=O)c1c(NC(=O)c2ccc(S(=O)(=O)N3CCOCC3)cc2)sc2c1CCN(C(C)C)C2`, the concentration at half-maximal activity (AC50) in assay [12] was 14.7 µM (active).
`CCOC(=O)C1(CCCc2ccccc2)CCN(Cc2cnn(C)c2)CC1`: the EC50 was 43 µM (inactive) on Mu-type opioid receptor, > 92.5 µM (inactive) in assay [9], 0.596 µM (active) in assay [10] and > 92.5 µM (inactive) in assay [11].

Source of the values: ChEMBL document CHEMBL1201862, “PubChem BioAssay data set” (2004).
